Source: patent US5380745A, “Medicinal composition” (Meiiji Seika Kaisha, Ltd., priority 1991, dated 1995)
Like-named read-outs stand apart in the source and are kept apart here.

Legend:
[1] = tested on: parasites in digestive tract of unigastric animals; conditions: used alone; unigastric animals such as fowl, dog, cat and swine; cited from earlier work
[2] = PF1022 substance, in words, cited from earlier work
[3] = tested on: sheep nematodes in the digestive tract; experiment: Anthelmintic effect on sheep nematodes in the digestive tract (EPG); assay type: in vivo; conditions: PF1022 substance alone oral 25 mg/kg/day for two days
Method: (§1) The medicinal composition of the present invention was administered to animals in an amount corresponding to a definite amount of PF1022 substance. The whole feces was collected everyday and the number of parasitic eggs per gram of the feces (EPG) were counted. Two weeks after the initiation of the administration, each animal was dissected and the number of parasites remaining in the intestine were counted.
(§2) The medicinal composition obtained in Example 1 was orally administered in a dose as corresponding to 25 mg of PF1022 substance/kg/day for two days. As a control, PF1022 substance alone was administered in the same manner as those described above. […] Each of the medicinal composition as shown in Table 4 was orally administered in a dose corresponding to 5 mg of PF1022 substance/kg/day for two days. As a control, PF1022 substance alone was orally administered in a dose of 25 mg/kg/day for two days.

[4] = tested on: parasites; conditions: rumenal animals such as cattle, sheep and goat; cited from earlier work
[5] = Water solubility of PF1022 substance (elution into buffer, HPLC); assay type: physicochemical; conditions: aqueous buffer, 40 °C, 50 mg PF1022 substance in 50 ml, read-out: Concentration of PF1022 substance
Method: The compositions of Examples 1 to 9 and PF1022 substance alone, employed as a control, were tested. Each composition was weighed in a 100 ml-Erlenmeyer flask, in an amount corresponding to 50 mg of PF1022 substance and 50 ml of McDougall buffer or Clark Lubs buffer was added thereto. McDougall buffer is prepared by dissolving 7.43 g of sodium hydrogencarbonate, 7.0 g of disodium phosphate 12-hydrate, 0.34 g of sodium chloride, 0.43 g of potassium chloride, 0.10 g of magnesium chloride hexahydrate and 0.05 g of calcium chloride in 1,000 ml of water and saturating the mixture with carbon dioxide gas (pH 6.8). Clark Lubs buffer is prepared by adding 50 ml of 0.2N potassium chloride and 10.6 ml of 0.2N hydrochloric acid to 139.4 ml of water (pH 2.0). The mixture was shaken in a thermostat at 40 °±0.5° C. at a vibrational amplitude of 4 cm at 60 rpm to figure eight. Sampling was made with the lapse of time and the amount of the eluate was determined by high performance liquid chromatography.

[6] = tested on: cattle nematodes in the digestive tract; experiment: Anthelmintic effect on cattle nematodes in the digestive tract (EPG); assay type: in vivo; conditions: oral 25 mg PF1022 substance/kg/day for two days
Method: as §1, §2

## CC(C)CC1C(=O)OC(Cc2ccccc2)C(=O)N(C)C(CC(C)C)C(=O)OC(C)C(=O)N(C)C(CC(C)C)C(=O)OC(Cc2ccccc2)C(=O)N(C)C(CC(C)C)C(=O)OC(C)C(=O)N1C (stereo not shown) [PF1022 substance]
[1]
  anthelmintic effect: particularly marked anthelmintic effect
[2]
  solubility in water: extremely poor solubility in water
[2]; listed as PF1022 Substance
  solubility in water: practically insoluble or hardly dispersible in water
[3]; day 0
  Number of eggs per gram of feces (EPG): 2997 EPG
[3]; day 1
  Number of eggs per gram of feces (EPG): 2313 EPG
[3]; day 3
  Number of eggs per gram of feces (EPG): 13 EPG
[3]; day 5
  Number of eggs per gram of feces (EPG): 9 EPG
[3]; day 7
  Number of eggs per gram of feces (EPG): 32 EPG
[3]; day 10
  Number of eggs per gram of feces (EPG): 12 EPG
[3]; day 14
  Number of eggs per gram of feces (EPG): 8 EPG
[4]
  dosage required relative to unigastric animals: 5 to 10 times
[5]; Clark Lubs buffer (pH 2.0)
  solubility at 1 h: < 1 µg/mL
  solubility at 24 h: < 1 µg/mL
[5]; McDougall buffer (pH 6.8)
  solubility at 1 h: < 1 µg/mL
  solubility at 24 h: < 1 µg/mL
[6]; day 0
  Number of eggs per gram of feces (EPG): 112 EPG
[6]; day 1
  Number of eggs per gram of feces (EPG): 80 EPG
[6]; day 3
  Number of eggs per gram of feces (EPG): 34 EPG
[6]; day 5
  Number of eggs per gram of feces (EPG): 41 EPG
[6]; day 7
  Number of eggs per gram of feces (EPG): 49 EPG
[6]; day 10
  Number of eggs per gram of feces (EPG): 36 EPG
[6]; day 14
  Number of eggs per gram of feces (EPG): 40 EPG
